{"source": "ChEMBL document CHEMBL3885861", "about": "“Open TG-GATES”", "organism": "Rattus norvegicus", "assay": "Open TG-GATES - Regimen: Daily Repeat", "assay_type": "toxicity, organism-based, Sprague-Dawley", "set-up": "regimen Daily Repeat, gender Male, age 6 weeks", "settings": "in vivo, po, 50 mg/kg, […], route gavage, dose level Low; for KIDNEY_L / KIDNEY_R / KIDNEY_TOTAL: tissue Kidney; for LIVER: tissue Liver; for A/G / ALP / ALT / AST / BUN / CRE / Ca / Cl / DBIL / GLC / IP / K / LDH / Na / PL / RALB / TBIL / TC / TG / TP / gamma-GTP: tissue Plasma", "data": [{"smiles": "CN1C(=O)OC(C)(C)C1=O", "note": "[TRIMETHADIONE]", "values": [{"measurement": "Lym", "setting": "tissue Blood, time 28 day", "result": 80.2, "unit": "%"}, {"measurement": "MCH", "setting": "tissue Blood, time 28 day", "result": 19.8, "unit": "pg"}, {"measurement": "MCHC", "setting": "tissue Blood, time 28 day", "result": 34.6, "unit": "%"}, {"measurement": "MCV", "setting": "tissue Blood, time 28 day", "result": 57.3, "unit": "fL"}, {"measurement": "Mono", "setting": "tissue Blood, time 28 day", "result": 2, "unit": "%"}, {"measurement": "Neu", "setting": "tissue Blood, time 28 day", "result": 15.4, "unit": "%"}, {"measurement": "PT", "setting": "tissue Blood, time 28 day", "result": 13.9, "unit": "s"}, {"measurement": "Plat", "setting": "tissue Blood, time 28 day", "result": 108.7, "unit": "x10_4/uL"}, {"measurement": "RBC", "setting": "tissue Blood, time 28 day", "result": 789.4, "unit": "x10_4/ul"}, {"measurement": "Ret", "setting": "tissue Blood, time 28 day", "result": 2.4, "unit": "%"}, {"measurement": "WBC", "setting": "tissue Blood, time 28 day", "result": 118.6, "unit": "x10_2/uL"}, {"measurement": "KIDNEY_L", "setting": "time 7 day", "result": 1.2, "unit": "g"}, {"measurement": "KIDNEY_R", "setting": "time 7 day", "result": 1.2, "unit": "g"}, {"measurement": "KIDNEY_TOTAL", "setting": "time 7 day", "result": 2.4, "unit": "g"}, {"measurement": "KIDNEY_L", "setting": "time 14 day", "result": 1.3, "unit": "g"}, {"measurement": "KIDNEY_R", "setting": "time 14 day", "result": 1.3, "unit": "g"}, {"measurement": "KIDNEY_TOTAL", "setting": "time 14 day", "result": 2.6, "unit": "g"}, {"measurement": "KIDNEY_L", "setting": "time 28 day", "result": 1.5, "unit": "g"}, {"measurement": "KIDNEY_R", "setting": "time 28 day", "result": 1.5, "unit": "g"}, {"measurement": "KIDNEY_TOTAL", "setting": "time 28 day", "result": 3, "unit": "g"}, {"measurement": "LIVER", "setting": "time 7 day", "result": 13.1, "unit": "g"}, {"measurement": "LIVER", "setting": "time 14 day", "result": 13.8, "unit": "g"}, {"measurement": "LIVER", "setting": "time 28 day", "result": 16.2, "unit": "g"}, {"measurement": "A/G", "setting": "time 7 day", "result": 0.8}, {"measurement": "ALP", "setting": "time 7 day", "result": 1932.2, "unit": "IU/L"}, {"measurement": "ALT", "setting": "time 7 day", "result": 44.4, "unit": "IU/L"}, {"measurement": "AST", "setting": "time 7 day", "result": 76.8, "unit": "IU/L"}, {"measurement": "BUN", "setting": "time 7 day", "result": 16.6, "unit": "mg/dL"}, {"measurement": "CRE", "setting": "time 7 day", "result": 0.2, "unit": "mg/dL"}, {"measurement": "Ca", "setting": "time 7 day", "result": 10.9, "unit": "mg/dL"}, {"measurement": "Cl", "setting": "time 7 day", "result": 105.4, "unit": "meq/L"}, {"measurement": "DBIL", "setting": "time 7 day", "result": 0.006, "unit": "mg/dL"}, {"measurement": "GLC", "setting": "time 7 day", "result": 187.8, "unit": "mg/dL"}, {"measurement": "IP", "setting": "time 7 day", "result": 7, "unit": "mg/dL"}, {"measurement": "K", "setting": "time 7 day", "result": 4.2, "unit": "meq/L"}, {"measurement": "LDH", "setting": "time 7 day", "result": 79.6, "unit": "IU/L"}, {"measurement": "Na", "setting": "time 7 day", "result": 143, "unit": "meq/L"}, {"measurement": "PL", "setting": "time 7 day", "result": 158, "unit": "mg/dL"}, {"measurement": "RALB", "setting": "time 7 day", "result": 2.6, "unit": "g/dL"}, {"measurement": "TBIL", "setting": "time 7 day", "result": 0.046, "unit": "mg/dL"}, {"measurement": "TC", "setting": "time 7 day", "result": 75, "unit": "mg/dL"}, {"measurement": "TG", "setting": "time 7 day", "result": 113.6, "unit": "mg/dL"}, {"measurement": "TP", "setting": "time 7 day", "result": 5.8, "unit": "g/dL"}, {"measurement": "gamma-GTP", "setting": "time 7 day", "result": 1.2, "unit": "IU/L"}, {"measurement": "A/G", "setting": "time 14 day", "result": 0.8}, {"measurement": "ALP", "setting": "time 14 day", "result": 1421.4, "unit": "IU/L"}, {"measurement": "ALT", "setting": "time 14 day", "result": 40.4, "unit": "IU/L"}, {"measurement": "AST", "setting": "time 14 day", "result": 71.2, "unit": "IU/L"}, {"measurement": "BUN", "setting": "time 14 day", "result": 16.2, "unit": "mg/dL"}, {"measurement": "CRE", "setting": "time 14 day", "result": 0.2, "unit": "mg/dL"}, {"measurement": "Ca", "setting": "time 14 day", "result": 10.7, "unit": "mg/dL"}, {"measurement": "Cl", "setting": "time 14 day", "result": 105.2, "unit": "meq/L"}, {"measurement": "DBIL", "setting": "time 14 day", "result": 0.002, "unit": "mg/dL"}, {"measurement": "GLC", "setting": "time 14 day", "result": 182.6, "unit": "mg/dL"}, {"measurement": "IP", "setting": "time 14 day", "result": 6.9, "unit": "mg/dL"}, {"measurement": "K", "setting": "time 14 day", "result": 4.3, "unit": "meq/L"}, {"measurement": "LDH", "setting": "time 14 day", "result": 131.4, "unit": "IU/L"}, {"measurement": "Na", "setting": "time 14 day", "result": 144.4, "unit": "meq/L"}, {"measurement": "PL", "setting": "time 14 day", "result": 159, "unit": "mg/dL"}, {"measurement": "RALB", "setting": "time 14 day", "result": 2.7, "unit": "g/dL"}, {"measurement": "TBIL", "setting": "time 14 day", "result": 0.04, "unit": "mg/dL"}, {"measurement": "TC", "setting": "time 14 day", "result": 72.4, "unit": "mg/dL"}, {"measurement": "TG", "setting": "time 14 day", "result": 112.8, "unit": "mg/dL"}, {"measurement": "TP", "setting": "time 14 day", "result": 6, "unit": "g/dL"}, {"measurement": "gamma-GTP", "setting": "time 14 day", "result": 1, "unit": "IU/L"}, {"measurement": "A/G", "setting": "time 28 day", "result": 0.8}, {"measurement": "ALP", "setting": "time 28 day", "result": 1126.4, "unit": "IU/L"}, {"measurement": "ALT", "setting": "time 28 day", "result": 33.8, "unit": "IU/L"}, {"measurement": "AST", "setting": "time 28 day", "result": 63.8, "unit": "IU/L"}, {"measurement": "BUN", "setting": "time 28 day", "result": 16.6, "unit": "mg/dL"}, {"measurement": "CRE", "setting": "time 28 day", "result": 0.3, "unit": "mg/dL"}, {"measurement": "Ca", "setting": "time 28 day", "result": 10.7, "unit": "mg/dL"}, {"measurement": "Cl", "setting": "time 28 day", "result": 104, "unit": "meq/L"}, {"measurement": "DBIL", "setting": "time 28 day", "result": 0.006, "unit": "mg/dL"}, {"measurement": "GLC", "setting": "time 28 day", "result": 180.2, "unit": "mg/dL"}, {"measurement": "IP", "setting": "time 28 day", "result": 5.3, "unit": "mg/dL"}, {"measurement": "K", "setting": "time 28 day", "result": 4.3, "unit": "meq/L"}, {"measurement": "LDH", "setting": "time 28 day", "result": 69.8, "unit": "IU/L"}, {"measurement": "Na", "setting": "time 28 day", "result": 142, "unit": "meq/L"}, {"measurement": "PL", "setting": "time 28 day", "result": 162, "unit": "mg/dL"}, {"measurement": "RALB", "setting": "time 28 day", "result": 2.8, "unit": "g/dL"}, {"measurement": "TBIL", "setting": "time 28 day", "result": 0.042, "unit": "mg/dL"}, {"measurement": "TC", "setting": "time 28 day", "result": 73.6, "unit": "mg/dL"}, {"measurement": "TG", "setting": "time 28 day", "result": 186.6, "unit": "mg/dL"}, {"measurement": "TP", "setting": "time 28 day", "result": 6.2, "unit": "g/dL"}, {"measurement": "gamma-GTP", "setting": "time 28 day", "result": 1.2, "unit": "IU/L"}]}]}
